Measured values from the NIST ThermoML archive (doi:10.1021/je900279z).

Conditions: Gas, Oscillating disk viscometry

FC(F)CC(F)(F)F [1,1,1,3,3-pentafluoropropane]
Conditions | viscosity [mPa·s]
300.81 K, 136 kPa | 0.01064
300.88 K, 113 kPa | 0.01065
300.93 K, 107 kPa | 0.01066
320.26 K, 145 kPa | 0.01124
320.33 K, 186 kPa | 0.01125
320.53 K, 108 kPa | 0.01127
320.58 K, 254 kPa | 0.01127
338.61 K, 100 kPa | 0.01186
338.61 K, 435 kPa | 0.01186
338.98 K, 307 kPa | 0.01184
339.02 K, 207 kPa | 0.01186
339.15 K, 145 kPa | 0.01186
357.15 K, 592 kPa | 0.01252
357.23 K, 104 kPa | 0.01256
357.23 K, 305 kPa | 0.01253
357.38 K, 159 kPa | 0.01255
357.39 K, 108 kPa | 0.01256
357.4 K, 224 kPa | 0.01254
357.43 K, 403 kPa | 0.01252
357.43 K, 708 kPa | 0.01252
357.52 K, 503 kPa | 0.01252
376.25 K, 164 kPa | 0.01303
376.38 K, 254 kPa | 0.01303
376.39 K, 567 kPa | 0.01306
376.43 K, 1071 kPa | 0.01318
376.46 K, 107 kPa | 0.01304
376.54 K, 348 kPa | 0.01304
376.58 K, 676 kPa | 0.01308
376.61 K, 457 kPa | 0.01305
376.61 K, 945 kPa | 0.01314
376.63 K, 1312 kPa | 0.01339
376.64 K, 797 kPa | 0.0131
395.6 K, 109 kPa | 0.01357
395.66 K, 213 kPa | 0.01355
395.77 K, 311 kPa | 0.01358
395.8 K, 417 kPa | 0.01359
395.81 K, 823 kPa | 0.0137
395.85 K, 512 kPa | 0.01362
395.93 K, 616 kPa | 0.01364
395.93 K, 723 kPa | 0.01366
396 K, 934 kPa | 0.01374
396.02 K, 1280 kPa | 0.01396
396.17 K, 1390 kPa | 0.01408
396.22 K, 1164 kPa | 0.01388
396.24 K, 1044 kPa | 0.01386
396.35 K, 1505 kPa | 0.01416
396.46 K, 1614 kPa | 0.0143

[Ar] [argon]
Conditions | viscosity [mPa·s]
300.11 K, 400 kPa | 0.02271
300.17 K, 103 kPa | 0.02279
300.19 K, 199 kPa | 0.02265
300.25 K, 302 kPa | 0.02265
300.32 K, 832 kPa | 0.02286
300.38 K, 616 kPa | 0.0228
300.49 K, 2082 kPa | 0.02335
300.54 K, 3089 kPa | 0.02347
300.56 K, 4050 kPa | 0.02364
300.58 K, 4503 kPa | 0.02383
300.63 K, 3427 kPa | 0.02343
300.66 K, 2759 kPa | 0.02338
300.68 K, 1446 kPa | 0.02313
300.7 K, 3729 kPa | 0.02351
300.72 K, 2458 kPa | 0.02338
300.76 K, 1775 kPa | 0.02325
300.89 K, 1117 kPa | 0.02293
